Activity calls are given as the source filed them.
Tests used:
Cytochrome P450 3A4 = Cytochrome P450 3A4 (Homo sapiens, UniProt P08684); conditions: Potency;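 note: confirmatory qHTS run detecting inhibitors and substrates of CYP3A4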
[1] = A cytotoxicity screen of small molecule inhibitors of the PhoP region in Salmonella typhi identified in the primary screen. [Related pubchem assays: 1850, 1864, 1985 ]; type: functional
[2] = biological target: T1, Voltage-gated N-type calcium channel alpha-1B subunit/Amyloid beta A4 precursor protein-binding family A member 1 (Homo sapiens, UniProt Q00975+Q02410); type: protein assay
SUMO-activating enzyme [3] = biological target: T2, SUMO-activating enzyme (Homo sapiens, UniProt Q9UBT2); experiment: blockers of UBC9-mediated SUMO conjugation – biochemical, AlphaScreen, SUMOylation inhibitor project, confirmation (AID 2018); type: functional
SUMO-activating enzyme [4] = biological target: T2, SUMO-activating enzyme; experiment: blockers of SAE1/SAE2–UBC9 SUMO transfer – biochemical, HTRF, uHTS, primary screen (AID 2006); type: protein-complex assay
[5] = biological target: T1, Voltage-gated N-type calcium channel alpha-1B subunit/Amyloid beta A4 precursor protein-binding family A member 1; type: protein assay; remark: listed apart in the source
[6] = biological target: Glyceraldehyde-3-phosphate dehydrogenase (Homo sapiens, UniProt P04406)
Estrogen receptor = biological target: T3, Estrogen receptor (Homo sapiens, UniProt P03372);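 note: potency for inhibiting coactivator peptide recruitment to the receptor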
T3 sequence (P03372 whole entry): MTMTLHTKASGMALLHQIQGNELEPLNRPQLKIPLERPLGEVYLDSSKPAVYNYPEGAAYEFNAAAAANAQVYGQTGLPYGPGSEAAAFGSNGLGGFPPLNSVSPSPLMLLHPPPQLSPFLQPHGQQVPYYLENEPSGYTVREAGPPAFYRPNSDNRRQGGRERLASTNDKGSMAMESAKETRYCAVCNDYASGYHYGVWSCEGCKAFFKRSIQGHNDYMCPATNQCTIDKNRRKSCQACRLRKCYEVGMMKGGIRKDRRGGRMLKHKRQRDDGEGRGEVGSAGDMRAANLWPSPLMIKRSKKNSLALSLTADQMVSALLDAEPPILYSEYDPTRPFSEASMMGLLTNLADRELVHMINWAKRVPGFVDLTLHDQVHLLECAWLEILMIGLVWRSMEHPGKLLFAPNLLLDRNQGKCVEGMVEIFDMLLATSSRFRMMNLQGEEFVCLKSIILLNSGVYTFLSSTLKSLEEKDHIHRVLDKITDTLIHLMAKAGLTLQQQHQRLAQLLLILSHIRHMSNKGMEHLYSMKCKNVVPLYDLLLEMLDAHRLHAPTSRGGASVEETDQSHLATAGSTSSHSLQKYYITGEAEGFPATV

Hexokinase = biological target: T4, Hexokinase (Trypanosoma brucei, UniProt Q38C41); experiment: Confirmation assay for inhibitors of Trypanosoma brucei hexokinase 1-Analogue-first series. [Related pubchem assays (depositor defined):AID1430, AID1632, AID2516, AID2560, AID2579, AID2600, AID449725, AID492951]; type: functional
T4 sequence (Q38C41 whole entry): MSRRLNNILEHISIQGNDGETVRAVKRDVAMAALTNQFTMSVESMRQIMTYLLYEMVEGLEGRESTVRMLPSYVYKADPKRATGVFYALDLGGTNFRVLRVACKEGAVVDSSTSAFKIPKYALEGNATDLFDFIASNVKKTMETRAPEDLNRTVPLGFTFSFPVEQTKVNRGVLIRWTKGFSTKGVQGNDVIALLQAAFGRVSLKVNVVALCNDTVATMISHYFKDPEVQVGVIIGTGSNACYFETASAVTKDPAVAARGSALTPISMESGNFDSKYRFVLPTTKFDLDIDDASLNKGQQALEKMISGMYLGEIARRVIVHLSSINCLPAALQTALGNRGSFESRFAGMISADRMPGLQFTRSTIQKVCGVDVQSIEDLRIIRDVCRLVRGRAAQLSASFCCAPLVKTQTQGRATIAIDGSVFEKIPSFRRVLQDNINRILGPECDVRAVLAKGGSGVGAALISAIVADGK

Bcl-2-like protein 10 = biological target: T5, Bcl-2-like protein 10 (Homo sapiens, UniProt Q9HD36); experiment: Bcl-B/TR3 peptide binding disruption – biochemical, fluorescence polarization, FITC-TR3 peptide, selectivity assay for Bfl-1 inhibitor project, primary screen (AID 748);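 note: fluorescence polarization from a fluorescein-labelled TR3 peptide binding purified Bcl-B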
T5 sequence (Q9HD36 whole entry): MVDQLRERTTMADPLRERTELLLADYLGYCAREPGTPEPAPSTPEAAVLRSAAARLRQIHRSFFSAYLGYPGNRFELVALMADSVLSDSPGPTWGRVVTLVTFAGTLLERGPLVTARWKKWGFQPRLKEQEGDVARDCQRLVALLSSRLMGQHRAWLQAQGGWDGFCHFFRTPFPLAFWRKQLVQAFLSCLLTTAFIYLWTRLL

[7] = biological target: T6, Acyl-homoserine lactone acylase PvdQ (Pseudomonas aeruginosa (strain LESB58), UniProt Q9I194); experiment: PvdQ acylase enzyme activity blockers – biochemical, fluorescence, plate reader and imaging, cherry-picks, dose response (AID 493231)
T6 sequence (Q9I194 whole entry): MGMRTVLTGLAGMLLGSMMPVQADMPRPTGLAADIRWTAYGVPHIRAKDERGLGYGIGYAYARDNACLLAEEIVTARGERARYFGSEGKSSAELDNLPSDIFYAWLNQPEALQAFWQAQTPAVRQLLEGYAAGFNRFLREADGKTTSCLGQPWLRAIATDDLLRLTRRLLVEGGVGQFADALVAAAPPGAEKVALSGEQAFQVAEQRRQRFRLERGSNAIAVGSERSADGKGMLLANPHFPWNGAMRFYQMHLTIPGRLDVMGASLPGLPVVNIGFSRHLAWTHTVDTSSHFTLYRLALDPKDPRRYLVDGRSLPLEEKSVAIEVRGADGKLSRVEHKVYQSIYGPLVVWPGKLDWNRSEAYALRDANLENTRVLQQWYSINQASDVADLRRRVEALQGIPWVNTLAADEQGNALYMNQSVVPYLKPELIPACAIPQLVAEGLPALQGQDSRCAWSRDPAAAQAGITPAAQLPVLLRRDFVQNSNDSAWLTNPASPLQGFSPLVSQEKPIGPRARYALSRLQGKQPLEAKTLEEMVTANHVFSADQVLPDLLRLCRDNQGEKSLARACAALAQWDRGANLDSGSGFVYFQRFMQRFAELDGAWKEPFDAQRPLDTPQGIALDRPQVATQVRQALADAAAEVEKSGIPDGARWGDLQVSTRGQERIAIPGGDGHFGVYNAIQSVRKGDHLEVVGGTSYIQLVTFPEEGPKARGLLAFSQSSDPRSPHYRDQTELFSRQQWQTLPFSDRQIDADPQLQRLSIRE

Cytochrome P450 2C9 = Cytochrome P450 2C9 (Homo sapiens, UniProt P11712)

Chain of Cytochrome P450 3A4 (P08684 whole entry): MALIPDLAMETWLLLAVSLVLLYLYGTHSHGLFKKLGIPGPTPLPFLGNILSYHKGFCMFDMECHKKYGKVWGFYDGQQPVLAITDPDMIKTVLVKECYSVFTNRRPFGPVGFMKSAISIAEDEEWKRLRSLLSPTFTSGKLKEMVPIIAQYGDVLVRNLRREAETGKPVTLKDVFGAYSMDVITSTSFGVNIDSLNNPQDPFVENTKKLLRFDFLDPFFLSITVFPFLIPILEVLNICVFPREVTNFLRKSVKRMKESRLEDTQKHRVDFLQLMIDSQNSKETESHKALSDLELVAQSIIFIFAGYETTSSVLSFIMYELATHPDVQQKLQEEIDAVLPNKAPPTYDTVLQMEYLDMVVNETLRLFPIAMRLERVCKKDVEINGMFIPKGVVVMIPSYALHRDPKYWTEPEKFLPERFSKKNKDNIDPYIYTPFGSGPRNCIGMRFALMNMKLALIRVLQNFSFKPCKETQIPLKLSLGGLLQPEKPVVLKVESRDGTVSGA
T2 sequence (Q9UBE0 whole entry): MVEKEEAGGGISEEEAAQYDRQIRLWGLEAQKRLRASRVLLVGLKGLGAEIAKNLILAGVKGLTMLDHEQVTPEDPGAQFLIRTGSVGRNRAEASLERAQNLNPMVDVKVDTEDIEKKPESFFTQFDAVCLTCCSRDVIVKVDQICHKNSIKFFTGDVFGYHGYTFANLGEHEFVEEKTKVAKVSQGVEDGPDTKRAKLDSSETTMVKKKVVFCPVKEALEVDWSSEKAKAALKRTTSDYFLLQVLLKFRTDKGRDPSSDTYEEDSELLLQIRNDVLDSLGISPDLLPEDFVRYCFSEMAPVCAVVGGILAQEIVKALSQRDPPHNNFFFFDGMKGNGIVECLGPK
T2 sequence (Q9UBT2 whole entry): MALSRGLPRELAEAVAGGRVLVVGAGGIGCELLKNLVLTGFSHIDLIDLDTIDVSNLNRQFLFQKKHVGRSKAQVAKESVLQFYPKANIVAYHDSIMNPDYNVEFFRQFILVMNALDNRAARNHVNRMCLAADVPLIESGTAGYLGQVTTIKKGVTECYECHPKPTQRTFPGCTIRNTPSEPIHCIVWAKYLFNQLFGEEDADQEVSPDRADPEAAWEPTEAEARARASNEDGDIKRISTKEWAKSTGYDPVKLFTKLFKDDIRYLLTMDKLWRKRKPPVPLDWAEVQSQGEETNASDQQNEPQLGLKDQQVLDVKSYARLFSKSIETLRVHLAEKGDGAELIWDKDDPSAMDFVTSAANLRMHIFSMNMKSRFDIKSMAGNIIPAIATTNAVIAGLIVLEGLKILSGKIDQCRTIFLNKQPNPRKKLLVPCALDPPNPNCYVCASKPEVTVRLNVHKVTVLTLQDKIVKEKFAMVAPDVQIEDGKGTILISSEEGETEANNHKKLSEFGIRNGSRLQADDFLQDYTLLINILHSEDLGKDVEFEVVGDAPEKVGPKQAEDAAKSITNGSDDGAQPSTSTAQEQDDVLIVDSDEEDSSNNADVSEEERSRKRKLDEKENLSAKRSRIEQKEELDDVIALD
T1 sequence (Q00975 whole entry): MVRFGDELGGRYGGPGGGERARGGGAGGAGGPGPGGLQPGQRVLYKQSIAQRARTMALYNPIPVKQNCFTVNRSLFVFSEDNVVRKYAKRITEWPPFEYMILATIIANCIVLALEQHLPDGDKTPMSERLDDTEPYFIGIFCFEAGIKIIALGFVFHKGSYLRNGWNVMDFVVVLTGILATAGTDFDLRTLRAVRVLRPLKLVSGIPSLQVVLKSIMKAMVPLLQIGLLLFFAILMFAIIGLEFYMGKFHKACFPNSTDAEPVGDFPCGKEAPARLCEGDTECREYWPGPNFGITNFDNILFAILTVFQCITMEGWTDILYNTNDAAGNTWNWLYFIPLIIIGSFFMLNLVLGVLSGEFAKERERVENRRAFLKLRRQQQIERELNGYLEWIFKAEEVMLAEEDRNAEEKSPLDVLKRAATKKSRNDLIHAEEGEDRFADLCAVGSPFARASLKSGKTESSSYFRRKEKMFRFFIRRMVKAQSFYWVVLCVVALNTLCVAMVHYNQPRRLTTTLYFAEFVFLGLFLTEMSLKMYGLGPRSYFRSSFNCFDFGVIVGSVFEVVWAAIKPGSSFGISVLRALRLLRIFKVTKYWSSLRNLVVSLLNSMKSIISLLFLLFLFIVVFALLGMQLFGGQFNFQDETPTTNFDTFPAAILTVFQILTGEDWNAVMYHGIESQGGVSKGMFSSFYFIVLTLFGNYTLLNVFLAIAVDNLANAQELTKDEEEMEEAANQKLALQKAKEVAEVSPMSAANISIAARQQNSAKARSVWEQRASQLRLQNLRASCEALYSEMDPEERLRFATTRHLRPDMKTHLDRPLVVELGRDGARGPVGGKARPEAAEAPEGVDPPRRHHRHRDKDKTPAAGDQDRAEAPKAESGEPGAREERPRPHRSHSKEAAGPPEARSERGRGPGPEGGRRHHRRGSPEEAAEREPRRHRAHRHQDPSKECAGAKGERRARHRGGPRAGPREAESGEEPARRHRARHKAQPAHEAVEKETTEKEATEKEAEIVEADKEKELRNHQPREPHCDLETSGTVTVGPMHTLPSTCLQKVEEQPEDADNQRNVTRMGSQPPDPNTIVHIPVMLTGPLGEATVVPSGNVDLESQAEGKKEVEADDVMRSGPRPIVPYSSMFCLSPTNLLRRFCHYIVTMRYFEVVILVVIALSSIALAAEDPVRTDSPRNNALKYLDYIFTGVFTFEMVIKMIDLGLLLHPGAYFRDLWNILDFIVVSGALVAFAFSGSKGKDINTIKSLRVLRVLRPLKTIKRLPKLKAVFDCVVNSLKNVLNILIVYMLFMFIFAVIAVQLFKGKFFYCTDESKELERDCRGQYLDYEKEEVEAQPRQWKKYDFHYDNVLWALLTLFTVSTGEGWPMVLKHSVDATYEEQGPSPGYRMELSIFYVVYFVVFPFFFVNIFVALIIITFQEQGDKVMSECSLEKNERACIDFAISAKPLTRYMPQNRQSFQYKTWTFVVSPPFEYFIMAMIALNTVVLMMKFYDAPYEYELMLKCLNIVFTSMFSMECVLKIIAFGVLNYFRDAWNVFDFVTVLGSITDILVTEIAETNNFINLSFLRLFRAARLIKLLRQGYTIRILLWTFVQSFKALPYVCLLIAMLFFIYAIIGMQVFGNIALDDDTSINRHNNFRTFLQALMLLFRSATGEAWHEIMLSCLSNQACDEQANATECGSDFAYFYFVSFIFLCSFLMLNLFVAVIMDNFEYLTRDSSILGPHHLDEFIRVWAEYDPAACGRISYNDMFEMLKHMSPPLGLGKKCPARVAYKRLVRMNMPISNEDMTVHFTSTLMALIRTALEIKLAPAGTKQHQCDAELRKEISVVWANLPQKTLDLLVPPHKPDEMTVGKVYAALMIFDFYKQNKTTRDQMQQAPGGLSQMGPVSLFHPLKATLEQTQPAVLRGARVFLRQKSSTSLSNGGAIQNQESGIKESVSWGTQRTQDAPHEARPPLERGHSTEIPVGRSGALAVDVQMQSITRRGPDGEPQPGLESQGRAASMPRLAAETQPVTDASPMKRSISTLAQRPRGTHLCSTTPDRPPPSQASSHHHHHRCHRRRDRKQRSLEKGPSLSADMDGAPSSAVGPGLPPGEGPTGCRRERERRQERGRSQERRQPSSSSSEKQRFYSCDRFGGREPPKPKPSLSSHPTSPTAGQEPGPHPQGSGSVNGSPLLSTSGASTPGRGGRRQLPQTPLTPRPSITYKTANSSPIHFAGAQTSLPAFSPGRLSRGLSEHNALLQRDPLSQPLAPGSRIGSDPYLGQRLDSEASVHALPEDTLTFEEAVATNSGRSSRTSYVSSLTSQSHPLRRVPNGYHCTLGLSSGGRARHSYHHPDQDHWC
T1 sequence (Q02410 whole entry): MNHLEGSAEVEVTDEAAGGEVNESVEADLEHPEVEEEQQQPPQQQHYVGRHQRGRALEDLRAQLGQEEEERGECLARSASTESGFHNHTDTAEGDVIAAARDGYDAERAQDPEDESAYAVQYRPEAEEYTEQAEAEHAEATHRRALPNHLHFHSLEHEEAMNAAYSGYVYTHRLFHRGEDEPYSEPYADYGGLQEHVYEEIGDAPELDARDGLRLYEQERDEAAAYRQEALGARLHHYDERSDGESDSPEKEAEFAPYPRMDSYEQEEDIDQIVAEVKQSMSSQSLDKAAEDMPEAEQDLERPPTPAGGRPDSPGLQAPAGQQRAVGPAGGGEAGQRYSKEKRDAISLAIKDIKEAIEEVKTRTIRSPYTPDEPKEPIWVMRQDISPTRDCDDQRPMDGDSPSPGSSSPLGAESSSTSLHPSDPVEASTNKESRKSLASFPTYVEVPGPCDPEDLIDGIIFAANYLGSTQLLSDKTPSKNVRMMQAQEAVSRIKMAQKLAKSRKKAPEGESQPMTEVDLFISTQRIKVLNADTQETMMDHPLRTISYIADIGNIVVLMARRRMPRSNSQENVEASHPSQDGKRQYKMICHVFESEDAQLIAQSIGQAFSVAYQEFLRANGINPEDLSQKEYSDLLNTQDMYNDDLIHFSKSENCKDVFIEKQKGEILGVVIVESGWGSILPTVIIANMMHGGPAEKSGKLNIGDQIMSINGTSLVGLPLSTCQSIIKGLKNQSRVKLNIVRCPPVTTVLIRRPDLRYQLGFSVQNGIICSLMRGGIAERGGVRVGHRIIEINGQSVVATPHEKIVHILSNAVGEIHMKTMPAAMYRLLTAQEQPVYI
Chain of Glyceraldehyde-3-phosphate dehydrogenase (P04406 whole entry): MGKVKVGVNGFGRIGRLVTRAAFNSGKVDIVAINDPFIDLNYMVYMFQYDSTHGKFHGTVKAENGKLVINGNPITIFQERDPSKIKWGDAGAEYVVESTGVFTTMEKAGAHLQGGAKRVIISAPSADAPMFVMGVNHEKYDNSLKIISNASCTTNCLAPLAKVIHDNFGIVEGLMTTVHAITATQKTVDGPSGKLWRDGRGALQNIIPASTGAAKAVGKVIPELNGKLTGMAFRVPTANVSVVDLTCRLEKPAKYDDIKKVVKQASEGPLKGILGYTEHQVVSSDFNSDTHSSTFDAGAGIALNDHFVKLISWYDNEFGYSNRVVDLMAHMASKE

COC(=O)[C@@H]1C[C@@H]2CC[C@@H](O)C[C@@H]2N1Cc1ccc(N2CCN(C)CC2)cc1
AC50 (Cytochrome P450 3A4): 10 µM (inconclusive)

O=[N+]([O-])c1ccc2oc(C3CCCCC3)nc2c1
EC50 [1]: > 50 µM (active)

CCCn1c(C)nc2c(NC3CCCCC3)nc(C)nc21
AC50 (Cytochrome P450 3A4): 12.6 µM (inconclusive)

CCOc1ccc(NC(=O)c2ccc(NC(=O)c3ccc(CN4CCOCC4)cc3)cc2)cc1
IC50 [2]: 10.1 µM (active)
IC50 (SUMO-activating enzyme [3]): 22.4 µM (active)
IC50 (SUMO-activating enzyme [4]): 25.1 µM (active)
IC50 [5]: > 50 µM (inactive)

COc1cccc(N2CCN(C3=C(Cl)C(=O)N(c4cccc(OC)c4)C3=O)CC2)c1
IC50 [6]: > 50 µM (inconclusive)

CC1CC(C(F)(F)C(F)(F)F)n2nc(C(=O)O)cc2N1 (configuration not stated)
IC50 (Estrogen receptor): 19.9 µM (active)

O=S1OCC2C(CO1)C1(Cl)C(Cl)=C(Cl)C2(Cl)C1(Cl)Cl (configuration not stated) [ENDOSULFAN]
AC50 (Cytochrome P450 3A4): 2.51 µM (inconclusive)

COc1ccc(S(=O)(=O)Nc2cc(Cl)ccc2C(=O)O)cc1
IC50 (Hexokinase): > 25 µM (inactive)

COc1ccc(C2C=C(c3ccc(Br)cc3)Nc3nc(NS(C)(=O)=O)nn32)cc1 (configuration not stated)
IC50 (Bcl-2-like protein 10): > 1.56 µM (inactive)

Oc1ccc(-c2nc3ncccn3c2Nc2ccc3c(c2)OCCO3)cc1
EC50 [1]: > 50 µM (active)

O=c1ccsn1-c1ccccc1
IC50 (Hexokinase): 13.5 µM (active)

c1ccc2cc(-c3csnn3)ccc2c1
AC50 [7]: 75.6 µM (active)
AC50 (Cytochrome P450 2C9): 14.1 µM (inconclusive)

CCn1c2ccccc2c2cc(NC(=O)CSc3nnc(-c4ccc(OC)cc4)n3N)ccc21
IC50 (Estrogen receptor): 12.2 µM (active)

Source: ChEMBL document CHEMBL1201862, “PubChem BioAssay data set” (2004)
